Experimental findings from ChEMBL document CHEMBL3632524, “3-(2,6-Dichloro-benzyloxy)-11-oxo-olean-12-ene-29-oic acid, a semisynthetic derivative of glycyrrhetic acid: synthesis, antiproliferative, apoptotic and anti-angiogenesis activity” (Medchemcomm, 2015) are described below.

Holding throughout (format): functional, cell-based
For assay [1], the system named is PC-3. In words: Antiproliferative activity against human PC3 cells assessed as cell viability after 48 hrs by MTT assay. The following applies: PC-3, 48 h. For orientation: Tetrazolium dyes change colour on reduction, which living cells bring about.
A short description of assay [2]: Antiproliferative activity against human MIAPaCa2 cells assessed as cell viability after 48 hrs by MTT assay. The following applies: MIA PaCa-2, 48 h.
The test system of assay [3] is HepG2. The assay can be described thus: Antiproliferative activity against human HepG2 cells assessed as cell viability after 48 hrs by MTT assay. The following applies: HepG2, 48 h.
Assay [4] concerns HL-60. The assay can be described thus: Cytotoxicity against human HL60 cells.

For `CC1(C)[C@@H](OCc2ccc(F)c(Br)c2)CC[C@]2(C)[C@H]3C(=O)C=C4[C@@H]5C[C@@](C)(C(=O)O)CC[C@]5(C)CC[C@@]4(C)[C@]3(C)CC[C@@H]12`, the IC50 in assay [1], in assay [2] and in assay [3] was over 20 µM each time.

With `CC1(C)[C@@H](OCc2ccc(F)cc2)CC[C@]2(C)[C@H]3C(=O)C=C4[C@@H]5C[C@@](C)(C(=O)O)CC[C@]5(C)CC[C@@]4(C)[C@]3(C)CC[C@@H]12`, the IC50 (usually the point on the concentration scale where inhibition reaches its midpoint) is 9 µM in assay [1], 12 µM in assay [2] and over 100 µM in assay [3].

Regarding `CC1(C)[C@@H](OCc2ccc(Cl)cc2Cl)CC[C@]2(C)[C@H]3C(=O)C=C4[C@@H]5C[C@@](C)(C(=O)O)CC[C@]5(C)CC[C@@]4(C)[C@]3(C)CC[C@@H]12`, the values for the IC50 in assay [1], in assay [2] and in assay [3] were 18 µM, over 100 µM and over 100 µM, respectively.

On to `CC1(C)[C@@H](O)CC[C@]2(C)[C@H]3C(=O)C=C4[C@@H]5C[C@@](C)(C(=O)O)CC[C@]5(C)CC[C@@]4(C)[C@]3(C)CC[C@@H]12` [ENOXOLONE], for which the IC50 in assay [1] was over 20 µM; in assay [2], over 20 µM; in assay [3], over 20 µM; in assay [4], 63.2 µM.

As to `COc1ccc(CO[C@H]2CC[C@]3(C)[C@H]4C(=O)C=C5[C@@H]6C[C@@](C)(C(=O)O)CC[C@]6(C)CC[C@@]5(C)[C@]4(C)CC[C@H]3C2(C)C)cc1OC`, the IC50 in assay [1], in assay [2] and in assay [3] was over 20 µM in each case.

`CC1(C)[C@@H](OCc2ccccc2[N+](=O)[O-])CC[C@]2(C)[C@H]3C(=O)C=C4[C@@H]5C[C@@](C)(C(=O)O)CC[C@]5(C)CC[C@@]4(C)[C@]3(C)CC[C@@H]12`: the IC50 in assay [1], in assay [2] and in assay [3] was over 20 µM throughout.

`CC1(C)[C@@H](OCc2cccc([N+](=O)[O-])c2)CC[C@]2(C)[C@H]3C(=O)C=C4[C@@H]5C[C@@](C)(C(=O)O)CC[C@]5(C)CC[C@@]4(C)[C@]3(C)CC[C@@H]12`: the IC50 in assay [1], in assay [2] and in assay [3] was over 20 µM throughout.
